The values that follow are results of earlier work, collected in patent EP2229962A1, “Medical-surgical devices with antibacterial coating for human or animal implant and a method for their production” (Martelli, Laura, priority 2009, dated 2010).

Where two headings read alike, the source gives them in different places.

With `[Ag+]` [Ag^+ ions, Ag^+], the “concentration of Ag^+ ions needed to perform an antibacterial action” value in the data set on bacteria (1 ppb equivalent to 1 µg/l) is listed as “at least 1 ppb”; with bacteria (in the case of certain bacteria), at least 0.1 ppb. In addition, the “concentration above which there are cytotoxic effects to the surrounding tissue” value in the data set with surrounding tissue is listed as above 35 ppb.
